The values below come from a melting point compilation (Tetko et al.; mined from patent text by program, amines drawn as free bases though some values may be those of a salt).

As to `O=c1[nH]c2cc(-n3cccc3)c([N+](=O)[O-])cc2n(C2CCCCC2)c1=O`, the melting point (usually the temperature of the solid-liquid transition) worked out at 197 °C.
The value for `O=c1oc(-c2c(F)cccc2F)nn1-c1ccccc1Br` was 111 to 114 °C; that for `COc1ccc(C(=NOC(C)=O)c2ccccc2F)c(O)c1Cl` was 125 to 128 °C; that for `CN1C/C(=C/C(=O)Nc2ccc(Cl)nn2)C[C@@H]2c3cccc4[nH]cc(c34)C[C@H]21` was 242 to 243 °C.
The result for `N#CCc1cccc(CCc2ccccc2C(=O)O)c1` reads 113 to 120 °C.
The result for `CC(C)(C)OC(=O)N[C@@H](Cc1ccccc1)[C@@H](O)C[C@@H](Cc1ccccc1)c1ncn[nH]1` reads 187 to 188 °C; that for `CC12CCC3c4ccc(C(=O)O)cc4CCC3C1CCC2C(=O)CCC1CCCCC1` (stereo not given), 250 to 253 °C.
`O=C(O)CCCN1C(=O)c2ccc([N+](=O)[O-])cc2C1=O` returned a melting point of 176 to 178 °C.
The result for `Cc1cc(C)c(Nc2nc(C)ccc2S(=O)(=O)c2ccc(OCc3cc(Cl)nc(Cl)c3)cc2)c(C)c1` reads 192 to 201 °C; that for `Cc1oncc1-c1ccc(OC2SCC(O)C(O)C2O)cn1` (stereo not given), 184 °C; that for `CSc1ccc(NC#N)c(-c2ccccc2)c1`, 85 °C.
The value for `CC(C)Cc1ccc(C(C)C(=O)NCCCNC2=NCCN2)cc1` (stereo not given) was 155 to 168 °C; that for `CCSc1nc(=O)[nH]cc1F` was 168 °C; that for `CNC(=O)Nc1cc2c(c3c1OC(C)(C)C3)C(c1ccccc1)=NC(C)(C)C2` was 209 to 211 °C.
The value for `Nc1ccc(-n2cc(C(F)(F)F)ccc2=O)c(Cl)c1` was 136 to 138 °C.
Regarding `CCOc1cc2c(cc1OCC)C(=C(C#N)SCC(CN1CCOCC1)OC(C)=O)NCC2` (stereo not given), the melting point was determined as 133 °C.
The value for `Oc1ccccc1-c1ncc2ncc(Cl)cc2n1` was 211 to 212 °C; that for `O=C1CN(S(=O)(=O)c2ccccc2)c2ccccc2N1` was 183 to 185 °C; that for `O=C1NC(=O)c2ccc(Br)cc2/C1=C/NCCc1c[nH]c2ccccc12` was 278 to 280 °C.
The result for `Cc1sc2c(c1C)CNC(Cl)=N2` reads 170 to 172 °C; that for `CC(CC(=O)O)Nc1cccc(Cl)c1` (stereo not given), 50 °C.
The value for `CC(O)=C(C#N)C(=O)Nc1ccc(C(F)(F)F)cc1` was 230 to 233 °C.
Take `CCOC(=O)c1nc(-c2cccc3ccccc23)[nH]c1-c1ccc(C)cc1`: the melting point was in the range of 190 to 192 °C.
With `CCCCC1=C(C)C=NC1=O`, the melting point fell in the range of 95 to 97 °C.
`CCCCCCCCCCCCCCCC(=O)NC#N` gave a melting point of 62 to 65 °C.
The result for `CCOC(=O)c1ccc(N(C(=O)OCC)C(=O)c2ccc(C(=O)C(C)(C)C)cc2)cc1` reads 84 to 86 °C; that for `COC(=O)C(=COC(F)F)c1ccccc1CBr`, 63 to 67 °C.
The result for `CCOC(=O)C12CCC(=O)N1CC(=O)N2` (stereo not given) reads 116 °C; that for `Cc1cc(CO)nc(Nc2ccccc2)n1`, 118 to 120 °C; that for `Nc1nc2ccccc2c2c1ncn2CC1(O)CCC1`, over 250 °C.
`CS(=O)(=O)Nc1ccc(OCCBr)c(Cl)c1` gave a melting point of 96 to 98 °C.
The compound `CC(C)c1ccc(S(=O)(=O)n2c(Cc3ccc(C(=O)O)s3)cc3cc(C(F)(F)F)ccc32)cc1` had a melting point of 199 to 216 °C.
`N#CCCCC#Cc1cc(F)c2ncc(C(=O)NCc3ccc(Cl)cc3)c(O)c2c1` had a melting point of 208 to 210 °C.
The result for `Cc1cn(C2CC(O)C(CNC(=O)c3ccc(Br)cc3)O2)c(=O)[nH]c1=O` (stereo not given) reads 250 to 252 °C; that for `COc1ccc(C2CNCc3cc(C)ccc32)cc1OC` (stereo not given), 129 to 131 °C.
The value for `COc1ccc(C2(CCO)CCN(C(=O)c3cc(OC)c(OC)c(OC)c3)C2)cc1OC` (stereo not given) was 60 to 62 °C; that for `CC(=O)Nc1c(CC(=O)O)cccc1Oc1ccccc1` was 155 to 156 °C; that for `Cc1nc2nc(SCc3ccccc3)nn2c(C)c1C` was 134 to 135 °C.
With `O=S(c1ccccc1)C1COc2ccc(OCc3ccc4ccccc4n3)cc2C1O` (stereo not given), the melting point lay within 174 to 176 °C.
The value for `OCC(O)CNc1nnc(-c2ccc(F)c(F)c2Nc2ccc(I)cc2F)o1` (stereo not given) was 157 to 159 °C; that for `O=C(O)C(Cc1ccc(OCCN2c3ccccc3Oc3ccccc32)cc1)C(=O)O` was 303 to 307 °C; that for `COCc1c[nH]c2c([N+](=O)[O-])cccc2c1=O` was over 250 °C.
The result for `CC(Oc1ccccc1)c1nnc(N)s1` (stereo not given) reads 157 to 167 °C.
Take `CC1(C)CC(=O)c2cc(Br)ccc21`: the melting point was 117 to 118 °C.
The result for `O=C1OC(c2ccccc2)=NC1Cc1ccccc1` (racemic) reads 70 to 72 °C; that for `O=C(Nc1cc(Cl)cc(Cl)c1)C(Cl)Cl`, 133 to 135 °C; that for `NCCCN1CCC(c2noc3cc(F)ccc23)CC1`, 59 to 62 °C.
The value for `CNCC1Cc2cccc(-c3c(C)cccc3C)c2O1` (stereo not given) was over 250 °C.
The result for `CN1N=C(c2ccc3c(c2)N(S(C)(=O)=O)CCO3)CCC1=O` reads 162 to 165 °C; that for `O=C(O)CCc1nc(-c2ccccc2)cs1`, 72 to 73 °C; that for `CCCC(CCNC(=O)C(C#N)=Cc1cc(O)c(O)c(OC)c1)NC(=O)C(C#N)=Cc1cc(O)c(O)c(OC)c1` (stereo not given), 243 °C.
For the compound `CNC(=O)c1ccc(CN2CCN(c3nc(C)c(-c4cc(C)n[nH]4)s3)C2=O)cc1`, the melting point was 236 to 238 °C.
`O=C(Nc1cccc(CN2C(=O)[C@H]3CCC[C@H]3N(C(=O)CN3C(=O)c4ccccc4C3=O)c3ccccc32)c1)c1ccccc1` (relative stereo): the melting point was in the range of 244 to 246 °C.
The result for `CCOC(=O)c1ncn2c1CNC(=O)c1cc(F)ccc1-2` reads 298 °C; that for `Cn1c(COc2ccc(CC3SC(=O)NC3=O)cc2)nc2ccc(Oc3ccc(NC(=S)Nc4cccc5ccccc45)cc3)cc21` (stereo not given), 186 to 188 °C.
The compound `CCOc1nn(-c2ccc(C(F)(F)F)cn2)cc1CCCOc1nn(CC)cc1CC(=O)O` displayed a melting point of 108 to 109 °C.
The result for `Cc1ccc(CN(CCCC(N)=O)Cc2ccc(C)cc2)cc1` reads 85 to 86 °C; that for `CCCCOC(C(=O)Oc1ccc(C(=O)O)cc1)c1ccc2c(c1)C(C)(C)CCC2(C)C` (racemic), 129 to 130 °C; that for `COCCc1nc2c(N)nc3cc(-c4cccnc4)ccc3c2n1CC(C)(C)O`, 158 to 160 °C.
The result for `CC(=O)N(C)c1ccc2sc3ccccc3c(=O)c2c1` reads 246 to 248 °C.
The result for `COc1ccc(Cc2oc3ccc(OC)cc3c2CC#N)cc1` reads 83 °C; that for `Cc1nc[nH]c1CSCCNC1=NCCS(=O)(=O)N1`, 146 to 147 °C; that for `CN(C)CCNc1c2nc3ccccc3c-2n(C)c2ccccc12`, 162 to 164 °C.
The compound `CC1(C)CC(=C(c2ccc(O)cc2)c2ccc(CCO)cc2)CC(C)(C)C1` yielded a melting point of 159 to 160 °C.
The result for `CC(C)Cn1c(=O)n(C)c(=O)c2c(Br)c(C(=O)c3nc4ccccc4n3C)sc21` reads 258 °C; that for `CCOCc1nc2c(N)nc(C)c(C)c2n1CCNC(=O)Nc1ccccc1`, 110 °C; that for `IC#CCSc1ccncc1`, 140 °C.
The result for `COC(=O)Cc1cccc2c1Sc1ccccc1S2` reads 124 to 125 °C; that for `CCc1cc2c(ccc(=O)n2Cc2ccc(NC(=O)c3ccccc3C(=O)O)cc2)c(CC)n1`, 237 to 240 °C; that for `N#Cc1nc(Cl)c(-c2cccc(Cl)c2)nc1C#N`, 87 to 88 °C.
The value for `Cc1cccc(-c2n[nH]cc2-c2ccc(F)c(-c3ccc(NC(=O)NN4CCOCC4)cc3)c2)n1` was 131 to 133 °C; that for `O=C(O)c1ccc(OCC2CN(c3ccccc3)C(=S)O2)cc1` (stereo not given) was 214 to 215 °C; that for `NC(=O)c1nc(-c2cccnc2)nc2c1[nH]c(=O)n2[C@H]1CC[C@H](O)CC1` was 331 to 333 °C.
Take `COc1cn(-c2ccc(-n3cccn3)cc2F)nc(-c2ccnn2-c2cccc(Cl)c2)c1=O`: the melting point was 186 to 190 °C.
The value for `OCCN1C2CCC1CC(c1ccc3ccccc3c1)C2` (stereo not given) was 84 to 88 °C; that for `Cc1cc2c(cc1C1=NNC(=O)CC1C)N(C)C(=O)CO2` (stereo not given) was 180 to 182 °C.
`c1ccc(CC[C@H]2CN(Cc3ccccc3)CCN2Cc2ccccc2)cc1` showed a melting point of 86 to 90 °C.
As to `COc1ccc(C2CCC(c3ccc4ccccc4c3)O2)cc1OC` (stereo not given), the melting point lay in the range of 74 to 77 °C.
The value for `CC[C@@]1(CC(=O)N[C@@H](C)c2ccccc2)CCCN2CCc3c([nH]c4ccccc34)[C@@H]21` was 188 to 192 °C; that for `O=C(O)c1cc(=O)c2cccc(/C=C/c3ccc(OCCCCc4ccccc4)cc3)c2o1` was 159 to 161 °C.
Regarding `CCc1noc(-c2cccc3c2C(=O)N(C)Cc2c(-c4nc(CC)no4)ncn2-3)n1`, the melting point lay in the range of 173 to 174 °C.
On to `Cn1cnnc1C(O)(c1ccc(Cl)cc1)c1ccc2[nH]c(=O)cc(-c3cccc(Cl)c3)c2c1` (stereo not given), for which the melting point was over 260 °C.
Compound `Cn1c2nc3ccccc3nc2c2cccc(CO)c21` had a melting point of 237 to 238 °C.
The result for `CC(C)NC(=O)Nc1ccc(Cl)cc1C(=O)c1ccccc1` reads 190 to 192 °C.
The result for `CN1CCN(c2n[nH]c(-c3ccc(F)cc3)c2-c2ccncc2)CC1` reads 238 to 240 °C; that for `CCOC(=O)CCc1c[nH]c(-c2cccs2)c1`, 39 to 40 °C.
For the compound `CCCCc1cn(CCC(C)C)c(=O)n1Cc1ccc(-c2ccccc2-c2nnn[nH]2)nc1`, the melting point fell in the range of 168 to 170 °C.
Consider `COc1c(O)ccc(C(=O)c2ccccc2)c1F`, for which the melting point was in the range of 126 to 128 °C.
The value for `Cc1ccc(-c2oncc2CCC(=O)O)cc1` was 121 to 122 °C; that for `CCC(NC(=O)c1c(O)c(-c2ccccc2)nc2ccccc12)c1ccccc1` (single isomer, unassigned; (-)) was 122 to 125 °C.
